Patent US7692004B2, “Use of metal complex compounds as oxidation catalysts” (Ciba Specialty Chemicals Corporation, priority 2001, dated 2010)

Experiments:
[1] = Cleaning performance on soiled surfaces at 23° C.; details: 0.16 g/l, constant 23° C., 45 minutes
Method: (§1) A tea-stained cup is filled with 100 ml of a buffer solution (10 mM carbonate, pH=10.0) containing 1.1 mM of hydrogen peroxide and 7.3 μM of 1:1 manganese complex (prepared as described in Application Example 2). Using a thermostat, the temperature of the solution is raised from 23° to 53° C. over a period of 12 minutes and maintained at the final temperature for 23 minutes. After rinsing and drying in air, the results are evaluated visually on a scale of 1 (no cleaning) to 10 (clean). The catalyst-free system is used as reference.
The procedure is as in Application Example 3 but the cleaning is carried out at a constant temperature of 23° C. (duration: 45 minutes).

[2] = Bleaching action in washing agents (LINITEST, DY increase); details: 1:1 Mn complex with ligand, H2O2 8.6 mmol/l, 30 minutes at 40° C.
Method: 7.5 g of white cotton fabric and 2.5 g of tea-stained cotton fabric are treated in 80 ml of washing liquor. The liquor contains a standard washing agent (ECE, 456 IEC) in a concentration of 7.5 g/l. The hydrogen peroxide concentration is 8.6 mmol/l. […] The washing process is carried out in a steel beaker in a LINITEST apparatus for 30 minutes at 40° C. For evaluating the bleaching results, the increase in the lightness DY (difference in lightness according to CIE) of the stains brought about by the treatment is determined spectrophotometrically in comparison with values obtained without the addition of catalyst.

[3] = Cleaning performance on soiled surfaces at 53° C.; details: for Difference (rating minus rating of reference): 1:1 manganese complex 7.3 μM, 53° C., reference = catalyst-free system; for Rating: 1:1 manganese complex with ligand 7.3 μM, H2O2 1.1 mM, pH 10.0, 23° to 53° C., visual scale 1 (no cleaning) to 10 (clean)
Method: as §1

[4] = Action as catalyst for DTI (dye transfer inhibition); details: 1:1 manganese complex 50 μmol/l; H2O2 8.6 mmol/l; Direct Brown 172 10 mg/l; 30 minutes at 40° C.
Method: 7.5 g of white cotton fabric are treated in 80 ml of washing liquor. The liquor contains a standard washing agent (ECE, 456 IEC) in a concentration of 7.5 g/l. The hydrogen peroxide concentration is 8.6 mmol/l. The catalyst concentration (of manganese(II) chloride tetrahydrate with the ligand, prepared in methanolic solution with the addition of a small amount of lithium hydroxide) is 50 μmol/l, and a solution of the test dye Direct Brown 172 having 10 mg/l of the 250% formulation. The washing process is carried out in a steel beaker in a LINITEST apparatus for 30 minutes at 40° C. For testing the activity of the catalysts, the DTI activity is determined.
The reflection spectra of the samples were measured using a SPECTRAFLASH 2000 and converted into lightness values (D65/10) in accordance with a standard CIE procedure.

[5] = Activity of the manganese catalysts after the bleaching cycle; details: for Difference DDY: versus H2O2 without Mn complex
Method: 7.5 g of white cotton fabric and 2.5 g of tea-stained cotton fabric are treated in 80 ml of washing liquor. The liquor contains a standard washing agent (ECE, 456 IEC) in a concentration of 7.5 g/l. The hydrogen peroxide concentration is 8.6 mmol/l. The catalyst concentration (1:1 complex of manganese(II) chloride tetrahydrate with the ligand in question, prepared in methanolic solution with the addition of a small amount of lithium hydroxide) is 50 μmol/l. The washing process is carried out in a steel beaker in a LINITEST apparatus for 30 minutes at 40° C. For evaluating the bleaching results, the increase in the lightness DY (difference in lightness according to CIE) of the stains brought about by the treatment is determined spectrophotometrically in comparison with values obtained without the addition of catalyst.
The procedure as described in Application Example 2 is carried out for the 1st cycle, the cotton fabric is removed and for the 2nd cycle the procedure is carried out afresh with a new, as yet untreated cotton fabric. The DY values are determined as described in Application Example 2.

[6] = Catalytic action for the epoxidation of olefins; details: ligand 0.05 mmol with manganese(II) acetate tetrahydrate 0.04 mmol, sodium ascorbate, H2O2; 14 hours at room temperature; by 1H-NMR
Method: 17 mg (0.05 mmol) of 2-[(2-hydroxy-ethyl)-[2,2′;6′,2″]terpyridin-4′-yl-amino]-ethanol (L7, Example 7), 10 mg (0.04 mmol) of manganese(II) acetate tetrahydrate and 0.32 mmol of sodium ascorbate are added to a solution of 1.09 ml (10 mmol) of ethyl acrylate in 0.5 ml of acetonitrile. The mixture is cooled in an ice bath and a 30% strength hydrogen peroxide solution (2.27 g, 20 mmol) is added dropwise thereto in the course of 20 minutes. The mixture is then left for 14 hours at room temperature, then diluted with diethyl ether and the phases are separated. The organic extract is dried over sodium sulfate, filtered and concentrated. The catalytic turnover number for the epoxide formed, ethyl oxirane-2-carboxylate, is determined by comparing the intensity of the epoxide methine proton at 3.34-3.38 ppm with the ligand signal L7 at 8.53 ppm as reference and is 35±8. Ethyl oxirane-2-carboxylate, epoxide signals ^1H-NMR (360 MHz, CDCl3): 2.68-2.89 (m, 2H, CH2); 3.34-3.38 (m, 1H, CH). Without the addition of ligand, epoxide cannot be detected.

[7] = Decomposition of hydrogen peroxide (iodometric); details: 1:1 manganese complex with ligand 7.3 μM, initial H2O2 1.1 mM
Method: as §1
The procedure is as in Application Example 3 but the consumption of H2O2 is determined iodometrically.

[8] = Catalytic bleaching of cellulose; details: catalytically bleached; 20 μM catalyst, 8.6 mM H2O2, pH 10.0, 40° C., 30 minutes; untreated sample 63.4
Method: 20 g of cellulose [TPP-CT CSF129, Ref. No. P-178635 (ISO 57.4)] are steeped in a litre of water for 65 hours and then stirred in a mixer for 2 minutes to give a paste-like pulp. A bleaching bath containing 50 g of the pulp so prepared in 180 ml of water, 100 μM of Dequest 2041 (sequestering agent), 8.6 mM of hydrogen peroxide and 20 μM of catalyst from Example 35 is maintained at 40° C. for 30 minutes. At the same time 1N sodium hydroxide solution is metered-in in such a manner that a pH of 10.0 is maintained. Filtration and air-drying are then carried out. A sample that has been compressed to form a circular sheet of 10 cm diameter is then tested for the lightness Y obtained (according to CIE, reflectance spectroscopy).

[9] = 50 μmol/l, ECE washing agent 7.5 g/l, versus no catalyst

SMILES: CC(=O)N(CCN(C(C)=O)C(C)=O)C(C)=O [N,N′-tetraacetylethylenediamine (TAED), N,N,N′,N′-tetraacetylethylenediamine]
- Difference (rating minus rating of reference) [1]: 2.9
- Rating ([1]; scale 1 to 10): 6.8 (3.9)

SMILES: CN(CCO)c1cc(-c2ccccn2)nc(-c2ccccn2)c1 [Ligand L5, 2-(Methyl-[2,2′;6′,2″]terpyridin-4′-yl-amino)-ethanol]
- DY increase [2, 9]: 5.2

SMILES: O=c1cc(-c2cc(N3CCCC3)ccn2)[nH]c(-c2cc(N3CCCC3)ccn2)c1 [Ligand L18, 4,4″-Di-pyrrolidin-1-yl-1′H-[2,2′;6′,2″]terpyridin-4′-one]
- DY increase [2, 9]: 3.0

SMILES: CN1CCN(c2cc(-c3ccccn3)nc(-c3ccccn3)c2)CC1 [Ligand L8, 4′-(4-Methyl-piperazin-1-yl)-[2,2′;6′,2″]terpyridine]
- DY increase [2, 9]: 5.0

SMILES: CN(CCO)c1ccnc(-c2cc(N(C)CCO)cc(-c3cc(N(C)CCO)ccn3)n2)c1 [Ligand L25, 2-({4′,4″-Bis[(2-hydroxy-ethyl)methyl-amino]-[2,2′;6′,2″]terpyridin-4-yl}-methylamino)-ethanol]
- DY increase [2, 9]: 6.2

SMILES: c1ccc(-c2cc(N3CCCCCC3)cc(-c3ccccn3)n2)nc1 [Ligand L9, 4′-Azepan-1-yl-[2,2′;6′,2″]terpyridine]
- DY increase [2, 9]: 3.8

SMILES: CN(CCO)c1ccnc(-c2cc(=O)cc(-c3cc(N(C)CCO)ccn3)[nH]2)c1 [Ligand L19, 4,4″-Bis[(2-hydroxy-ethyl)-methyl-amino]-1′H-[2,2′;6′,2″]terpyridin-4′-one]
- DY increase ([2]; half concentration used): 5.3^1)

SMILES: c1ccc(-c2cc(N3CCCC3)cc(-c3ccccn3)n2)nc1 [Ligand L6, 4′-Pyrrolidin-1-yl-[2,2′;6′,2″]terpyridine]
- Difference (rating minus rating of reference) [3]: 3.9
- Rating [3]: 7.2 (3.3)
- DY increase [2, 9]: 5.8

SMILES: CCOc1ccnc(-c2cc(=O)cc(-c3cc(OCC)ccn3)[nH]2)c1 [Ligand L17, 4,4″-Diethoxy-1′H-[2,2′;6′,2″]terpyridin-4′-one]
- DY increase [2, 9]: 5.3

SMILES: c1ccc(-c2cc(N3CCCCC3)cc(-c3ccccn3)n2)nc1 [Ligand L10, 4′-Piperidin-1-yl-[2,2′;6′,2″]terpyridine]
- Difference (rating minus rating of reference) [3]: 2.1
- Rating [3]: 5.2 (3.1)
- DY increase [2, 9]: 4.4

SMILES: NNc1cc(-c2ccccn2)nc(-c2ccccn2)c1 [Ligand L4, [2,2′;6′,2″]Terpyridin-4′-yl-hydrazine]
- DY increase [2, 9]: 5.0

SMILES: c1ccc(-c2cc(N3CCOCC3)cc(-c3ccccn3)n2)nc1 [Ligand L11, 4′-Morpholin-4-yl-[2,2′;6′,2″]terpyridine]
- Difference (rating minus rating of reference) [3]: 2.4
- Rating [3]: 5.7 (3.3)
- DY increase [2, 9]: 5.5

SMILES: OCCN(CCO)c1cc(-c2ccccn2)nc(-c2ccccn2)c1 [Ligand L7, 2-[(2-Hydroxy-ethyl)-[2,2′;6′,2″]terpyridin-4′-yl-amino]-ethanol]
- Difference (rating minus rating of reference) [3]: 3.6
- Rating [3]: 6.9 (3.3)
- DTI activity a [4]: 90%
- Bleaching value with H2O2 and the 1:1 Mn complex (DY) ([5]; 1st cycle): DY = 23.0
- Difference DDY ([5]; 1st cycle): 8.1
- Bleaching value with H2O2 and the 1:1 Mn complex (DY) ([5]; 2nd cycle, same liquor, new fabric): DY = 19.0
- Difference DDY ([5]; 2nd cycle): 8.0
- DY increase [2, 9]: 5.6
- Catalytic turnover number for the epoxide formed, ethyl oxirane-2-carboxylate [6]: 35±8

SMILES: O=c1cc(-c2ccccn2)[nH]c(-c2ccccn2)c1 [Ligand L1, 1′H-[2,2′;6′,2″]Terpyridin-4′-one]
- Difference (rating minus rating of reference) [3]: 1.9
- Rating [3]: 5.0 (3.1)
- DY increase [2, 9]: 5.0
- Residual H2O2 ([7]; procedure of Application Example 3): 0.73 mM
- Consumption ([7]; H2O2 consumption): 34%

SMILES: CCOc1ccnc(-c2cc(N(CCO)CCO)cc(-c3cc(OCC)ccn3)n2)c1 [Ligand L28, 2-[(4,4″-Diethoxy-[2,2′;6′,2″]terpyridin-4′-yl)-(2-hydroxy-ethyl)-amino]-ethanol]
- Difference (rating minus rating of reference) [3]: 2.2
- Rating [3]: 5.2 (3.0)
- DY increase [2, 9]: 4.3

SMILES: COc1ccccc1-c1cccc(-c2cccc(-c3cccc(-c4ccccc4OC)n3)n2)n1 [Ligand L29, 6,6″-Bis(2-methoxyphenyl)-2,2′:6′:2″-terpyridine]
- Lightness Y [8]: 66.9
